Measurements taken from patent publication US20230137816A1, “ADMINISTRATION OF CALCIUM CHANNEL TRPC6 INHIBITORS USING BALLOONS, STENTS OR OTHER MEDICAL DEVICES” (DEUTSCHES HERZZENTRUM MUENCHEN DES FREISTAATES BAYERN, priority 2020, published 2023).

Legend:
Assay type in all cases: cell-based
[1] = test system: human aortic smooth muscle cells (hAoSMC); test: Scratch wound assay of human aortic SMCs (cell migration); parameters: VSMC migration (wound reclosure) / VSMC migration versus control: dose or concentration left out as unconfirmed; details: for wound reclosure: 100 μM OAG
Experimental: (§1) Human aortic smooth muscle cells (hAoSMC) were purchased from PromoCell (Heidelberg, Germany) and cultured at 37° C. in a humidified 5% CO2 atmosphere in the recommended cell culture medium (PromoCell, Heidelberg, Germany).
For scratch wound assays, cells were seeded in 24 well plates at a density of 100,000 cells per well. After they had grown to confluence for 24 h the cell monolayer was scratched in the middle with a 200 μl pipette tip. Cells were washed with PBS and incubated in growth medium supplemented with OAG (Sigma-Aldrich, St. […] Wound area was measured directly after the scratch (t0) and after 6 h (t1), 8 h (t2) and 12 h (t3) with a phase-contrast microscope (Axiovert 100, Zeiss, Oberkochen, Germany) and assessed with ImageJ version 1.47v. Wound reclosure was measured as Δt0-t1 (6 h), Δt0-t2 (8 h), and Δt0-t3 (12 h) in pixels. Scratch assays were performed in triplicates. For radius assays, 24-well plates were coated with gelatin solution (Pelobiotech, Planegg, Germany). Culture cylinders (total diameter 4 mm, inner diameter 2 mm; Bioptechs, Butler, Pa., USA) were then placed in the middle of the well and cells were seeded at a density of 100,000 cells per well around the cylinders. 20 μL of SAR 7334 with a final concentration of 100 nM in gelatin were added to the inner of the cylinders. 1% DMSO was used as control. After 24 h of incubation cylinders were removed and pictures were acquired immediately (t0) and after 48 h (t1) using a phase-contrast microscopy system (Axiovert 100, Zeiss, Oberkochen, Germany). Wound reclosure was measured as Δt0-t1 (48 h) in pixels. Measurements were performed in duplicates.
For scratch wound assays, cells were seeded in 24 well plates at a density of 100,000 cells per well. After they had grown to confluence for 24 h the cell monolayer was scratched in the middle with a 200 μl pipette tip. Cells were washed with PBS and incubated in growth medium supplemented with OAG (Sigma-Aldrich, St. Louis, Mo., USA) at final concentration of 100 μM or SAR 7334 (Bio-Techne, Wiesbaden, Germany) at a final concentration of 100 nM. 1% DMSO was used as control. Wound area was measured directly after the scratch (t0) and after 6 h (t1), 8 h (t2) and 12 h (t3) with a phase-contrast microscope (Axiovert 100, Zeiss, Oberkochen, Germany) and assessed with ImageJ version 1.47v. Wound reclosure was measured as Δt0-t1 (6 h), Δt0-t2 (8 h), and Δt0-t3 (12 h) in pixels. Scratch assays were performed in triplicates. For radius assays, 24-well plates were coated with gelatin solution (Pelobiotech, Planegg, Germany). Culture cylinders (total diameter 4 mm, inner diameter 2 mm; Bioptechs, Butler, Pa., USA) were then placed in the middle of the well and cells were seeded at a density of 100,000 cells per well around the cylinders. 20 μL of SAR 7334 with a final concentration of 100 nM in gelatin were added to the inner of the cylinders. 1% DMSO was used as control. After 24 h of incubation cylinders were removed and pictures were acquired immediately (t0) and after 48 h (t1) using a phase-contrast microscopy system (Axiovert 100, Zeiss, Oberkochen, Germany). Wound reclosure was measured as Δt0-t1 (48 h) in pixels. Measurements were performed in duplicates.

[2] = test system: human aortic smooth muscle cells (hAoSMC); test: Cell proliferation assay, BrdU ELISA; details: 100 μM OAG; vehicle 0.08±0.03, p<0.01
Experimental: as §1
Cell proliferation was assessed using of a colorimetric bromodeoxyuridine (BrdU) enzyme-linked immunosorbent assay (ELISA) according to manufacturer's protocol (Roche Applied Science, Penzberg, Germany). Briefly, cells were seeded in 96 well plates at a density of 10,000 cells per well in starving medium, i.e., lacking FBS and growth factors. After 24 h, the starving medium was replaced by growth medium which was either supplemented with 1-Oleoyl-2-acetyl-sn-glycerol (OAG; Sigma-Aldrich, St. Louis, Mo., USA) at a final concentration of 100 μM, SAR 7334 (Tocris Bioscience, Bristol, UK) at a final concentration of 100 nM or with 1% of DMSO which was used as vehicle. After incubation for another 24 h, 10 μl of BrdU solution were added. Absorbance was measured at 370 nm with a reference wavelength of 492 nm in the Infinite M200 PRO microplate reader using the iControl v1.10 software (both Tecan Group, Männedorf, Switzerland) after further 24 h. Measurements were performed in triplicates.

[3] = test system: human aortic smooth muscle cells (hAoSMC); test: Radius migration assay of human aortic SMC on SAR7334 coating; details: culture dish coated with SAR7334 (100 nM in gelatin), 48 h
Experimental: as §1
For scratch wound assays, cells were seeded in 24 well plates at a density of 100,000 cells per well. After they had grown to confluence for 24 h the cell monolayer was scratched in the middle with a 200 μl pipette tip. Cells were washed with PBS and incubated in growth medium supplemented with OAG (Sigma-Aldrich, St. Louis, Mo., USA) at final concentration of 100 μM or SAR 7334 (Bio-Techne, Wiesbaden, Germany) at a final concentration of […]. 1% DMSO was used as control. Wound area was measured directly after the scratch (t0) and after 6 h (t1), 8 h (t2) and 12 h (t3) with a phase-contrast microscope (Axiovert 100, Zeiss, Oberkochen, Germany) and assessed with ImageJ version 1.47v. Wound reclosure was measured as Δt0-t1 (6 h), Δt0-t2 (8 h), and Δt0-t3 (12 h) in pixels. […] Wound reclosure was measured as Δt0-t1 (48 h) in pixels. […]
For scratch wound assays, cells were seeded in 24 well plates at a density of 100,000 cells per well. […] Wound area was measured directly after the scratch (t0) and after 6 h (t1), 8 h (t2) and 12 h (t3) with a phase-contrast microscope (Axiovert 100, Zeiss, Oberkochen, Germany) and assessed with ImageJ version 1.47v. […]

Structure (SMILES) | wound reclosure ([1]; 12 hours after scratch, vehicle 156.93±7.06, p=0.01) | wound reclosure ([1]; eight hours after scratch, vehicle 69.05±7.03, p=0.01) | proliferation of human VSMCs (BrdU ELISA) [2] [absorbance units] | VSMC migration versus control ([1]; 6 hours after injury) | VSMC migration versus control ([1]; 8 hours after injury) | VSMC migration (wound reclosure) ([1]; 12 hours after scratch, control 130.0±10.6, p=0.04) | local migration versus control culture [3]
CCCCCCCC/C=C\CCCCCCCC(=O)OC[C@H](CO)OC(C)=O [OAG, 1-oleoyl-2-acetyl-sn-glycerol] | 179.14±3.61 10^3 pixels | 93.09±3.67 10^3 pixels | 0.31±0.07 |  |  |  | 
N#Cc1ccc(O[C@@H]2c3ccccc3C[C@H]2N2CCC[C@@H](N)C2)c(Cl)c1 [SAR7334] |  |  |  | comparable to control levels | comparable to control levels | 111.4±15.5 10^3 pixels | reduced local migration
